Test [1] has as its system MIA(Monosodium iodoacetate)-induced osteoarthritis rat model. The experiment in a line: Pain threshold (dynamic plantar aesthesiometer) in MIA-induced osteoarthritis rat model. Format: in vivo. The protocol:
(§1) In order to evaluate the efficacy of test sample on MIA(Monosodium iodoacetate)-induced osteoarthritis rat model, following test was performed at “Joint and Immune disease T2B center(chief MD. PARK, Sung-whan) located in “The Catholic University of Korea, Seoul ST. Mary's Hospital, Seoul).
(§2) (1) Test animals: Rats (Male Wista rats, Central Lab. Animal, Seoul, Korea, 7 to 8 weeks aged, 200 to 250 g) were bred in the well-controlled breeding room in polysulfone cage (2-3 […] per cage) maintaining the temperature of 21±2° C. and relative humidity of 50±20% with the light cycle of day/dark (08:00˜20:00) at the interval of 12 hours and acclimated to the surround environment
(§3) Test method: 3 mg/kg of Monosodium iodoacetate (MIA, 12512, Sigma, Poole, UK) was dissolved in the injection saline to re reach to 60 mg/ml concentration on the day of the experiment (day 0). After dividing each groups, the experimental animals were placed in the anesthesia chamber and anesthetized with diethyl ether. 50 μL of MIA (3 mg/body) was injected into the right knee joint through the infrapatellar ligament using a 1cc syringe (26.5 gauge) in order to inducing osteoarthritis
(§4) (4) Treatment route: oral administration 3 days after inducing osteoarthritis (once a day)
(§5) After inducing osteoarthritis with MIA, test sample treatment groups (G2, G3) were prepared by homogenizing the test samples with vehicle (saline) according to the prescribed dose and orally administrating 1 mL of test sample once a day.
The positive control group (G4) was homogenized to the vehicle according to the prescribed dose and orally administered once a day.
24 rats were divided into 4 groups per 6 rats, and the test samples and positive control substance were orally administered at a specified time.
The pain threshold (nociceptive latency, threshold) was determined by using dynamic plantar aesthesiometer (Ugo Basile, 37400, Comerio, Italy), a device that gradually increases the force on the feet of Male Wistarats over a certain period of time, according to a […] evaluation method to measure pain thresholds ((Kwon J Y et al., Sci Rep. 2018 Sep. 14; 8(1):13832)
Prior to measurement, the animal was placed in an acrylic box with a wire mesh bench and acclimated for five minutes.
The pain threshold was determined by measuring the weight showing paw withdrawal behavior which animal withdraws its feet by applying a slow force of 0 to 50 g over 10 seconds using metal filaments in the center of each animal's right hind foot.
To avoid tissue damage, the cut-off threshold was set to 50 g, and the measurement time was set to the day before the inducing day of osteoarthritis by the treatment of MIA to calculate base line value in the normal control group (G1), test sample groups (G2, G3) and positive control group (G4) and the same value was obtained in the base line (day 3).
The same value was measured before the treatment of test samples (day 3) and the value was measured once a week at a certain time by administering the test samples in the […] of rats.
The test result of pain threshold was calculated according to (a) paw withdrawal latencies (sec) and (b) paw withdrawal threshold (g).

Test [2] has the same test system. The experiment in a line: Weight bearing in MIA-induced osteoarthritis rat model. Format: in vivo. The protocol: as §1, §2, §3, §4, §5
In order to measure the change in weight (or weight distribution) between normal hind legs (left) and arthritis-induced hind legs (right), the load of both hind feet was determined using testing apparatus (Model 600, IITC, USA) according to the method described in the literature (Kwon J Y et al., Sci Rep. 2018 Sep. 14; 8(1):13832).
The test animal shall be correctly located in the holder and fixed so that both feet can be stepped symmetrically, since the load can be varied depending on the position of the animal's foot. The particular person performs the fixation to reduce the possible error to the maximum extent.
When each animal was correctly located in the holder, the machine was operated and the weight bearing of each group was measured twice for 5 seconds per measurement.
The mean value for each test result was digitized into the weight bearing(g) of each foot.
After obtaining a baseline value before MIA treatment (Day 0), the weight bearing in the normal control group (G1), test sample groups (G2, G3) and positive control group (G4), was determined at a certain time twice a week, 3 days before the treatment of test sample (day 3).
The test results of the weight load measurement were transformed into each weight bearing ratio according to below Math 1.
Weight ratio (%)={weight of right hind limb/(weight of right hind limb+weight of left hind limb)}×100 [Math.1]

Test [3] has the same test system. The test can be described thus: Bone injury by micro-CT in MIA-induced osteoarthritis rat model. Format: in vivo. The settings on record: 30 mg/kg oral once a day; vehicle 45.7. The protocol: as §1, §2
Test method: 3 mg/kg of Monosodium iodoacetate (MIA, 12512, Sigma, Poole, UK) was dissolved in the injection saline to re reach to 60 mg/ml concentration on the day of the experiment (day 0). […]
The degree of bone injury around femur area of the knee joint in each group consisting of 3 rats, was determined using X-ray source (70 kV, 142 uA, AI 0.5 mm filter, rotation step 0.6°) and animal scanner (SKYSCAN1272 ex-vivo micro-CT, Bruker micro CT, Belgium) to perform micro-CT photography at 15 μm of Pixel resolution including section formation (NRecon), section rotation (Data Viewer), data Analysis (CTAN), Volume rendering generation (CTVox), and surface rendering (CTAN+CTVol).

Test [4] has the same test system. The experiment in a line: Bone injury by histopathological analysis (Safranin O; Total Mankin score, OARSI score) in MIA-induced osteoarthritis rat model. Format: in vivo. To be noted: 30 mg/kg oral once a day. The protocol: as §1, §2
Test method: 3 mg/kg of Monosodium iodoacetate (MIA, 12512, Sigma, Poole, UK) was dissolved in the injection saline to re reach to 60 mg/ml concentration on the day of the experiment (day 0). After dividing each groups, the experimental animals were placed in the anesthesia chamber and anesthetized with diethyl ether. […]
The histopathological analysis was performed by photographing the femur area of knee joint (×200 fold). The test result was calculated and evaluated according to the known methods including Total Mankin score (Bulstra S K et al., 1989, Clin Orthop Relat Res: 294-302.) and OARSI score (Pritzker K. P. H. et al., 2006, Osteoarthritis Cartilage 14:13-29).

In a further test the test system is TSLP. The experiment in a line: Inhibition of cytokine expression in TNF alpha-induced HaCaT cell (Real-time PCR): TSLP. Format: cell-based, human. The settings on record: TNFα 50 ng/ml, Dexamethasone 200 nM, TNFα+DIW control 132.4692. The protocol: (§6) In order to determine the anti-inflammatory activity of inventive extract, following inhibition test of cytokine expression using HaCaT cell was performed according to the procedure disclosed in the literature (Jeong et al., 2019, J. Invest. Dermatol., May; 139 (5): pp 1098-1109).
(§7) HaCaT cell (human epithelial keratinocyte cell, 300493, CLS) was inoculated into DMEM medium containing 10% Fetal bovine serum, 100 units/ml of penicillin, 100 μg/ml of streptomycin (D6429, Sigma-Aldrich Co. Ltd) and was incubated in the incubator (HERA cell 150i, Thermo Fisher Scientific Co. Ltd.) maintaining optimum humidity (85-95%) and 5% CO2 atmosphere.
(§8) For performing gene expression test, the incubated cells were transferred to 12 wells and 50 ng/ml of TNF alpha (RC214-12, Biobasic Co. Ltd) was treated therewith for 1 hour to induce inflammatory response.
(§9) 1 hour after inducing the inflammation, 1 μg/ml of inventive extract prepared in Examples was treated with identical medium and subjected to incubation for 1 hour. After the incubation, RNA (FATRR-001, Favorgen) was extracted from the cell and cDNA was synthesized from the RNA using by cDNA synthesis kit (RRO36A, TAKARA). […]

Another test deals with IL-1β. The test can be described thus: Inhibition of cytokine expression in TNF alpha-induced HaCaT cell (Real-time PCR): IL-1β. The format is cell-based, human. To be noted: TNFα 50 ng/ml, Dexamethasone 200 nM, TNFα+DIW control 4.152715. The protocol: as §6, §7, §8, §9
(Quantitative PCR measures a nucleic acid by following its amplification.)

SMILES strings stand for the structures.

With `Cc1ccc(-c2cc(C(F)(F)F)nn2-c2ccc(S(N)(=O)=O)cc2)cc1` [Celecoxib], the paw withdrawal latencies in test [1] (30 mg/kg oral once a day, 6 days after MIA treatment, vehicle 8.6) was determined as 9.9 ± 2.2 s; in test [1] (30 mg/kg oral once a day, 11 days after MIA treatment, vehicle 9.1), 10.2 ± 0.9 s; in test [1] (30 mg/kg oral once a day, 13 days after MIA treatment, vehicle 9.0), 10.4 ± 0.9 s; in test [1] (30 mg/kg oral once a day, 17 days after MIA treatment, vehicle 9.5), 10.9 ± 1.8 s; in test [1] (30 mg/kg oral once a day, 21 days after MIA treatment, vehicle 9.0), 11.9 ± 1.5 s; in test [1] (30 mg/kg oral once a day, 25 days after MIA treatment, vehicle 9.0) it was 11.6 ± 1.0 s. The paw withdrawal latencies was 16.0 ± 1.5 s in test [1] (30 mg/kg oral once a day, Before MIA treatment (baseline), vehicle 16.8) and 9.2 ± 2.1 s in test [1] (30 mg/kg oral, 3 days after MIA treatment (before first dose), vehicle 9.4). In addition, the paw withdrawal threshold in test [1] (30 mg/kg oral once a day, 6 days after MIA treatment, vehicle 17.4) amounted to 19.9 ± 4.3 g; in test [1] (30 mg/kg oral once a day, 11 days after MIA treatment, vehicle 18.5), 20.7 ± 1.7 g; in test [1] (30 mg/kg oral once a day, 13 days after MIA treatment, vehicle 18.3), 21.0 ± 1.6 g; in test [1] (30 mg/kg oral once a day, 17 days after MIA treatment, vehicle 19.2), 22.0 ± 3.4 g; in test [1] (30 mg/kg oral once a day, 21 days after MIA treatment, vehicle 18.3), 24.0 ± 2.9 g; in test [1] (30 mg/kg oral once a day, 25 days after MIA treatment, vehicle 18.2), 23.4 ± 1.9 g. For the same compound, the paw withdrawal threshold amounted to 33.8 ± 2.9 g in test [1] (30 mg/kg oral once a day, Before MIA treatment (baseline), vehicle 33.6) and 18.6 ± 4.1 g in test [1] (30 mg/kg oral, 3 days after MIA treatment (before first dose), vehicle 19.0). The “weight bearing, weight ratio of right hind limb” value in test [2] (30 mg/kg oral once a day, 6 days after MIA inducement, vehicle 35.5) is 38.5 ± 1.8%; in test [2] (30 mg/kg oral once a day, 11 days after MIA inducement, vehicle 33.8) it was 40.0 ± 3.2%; in test [2] (30 mg/kg oral once a day, 13 days after MIA inducement, vehicle 32.3), 44.5 ± 0.7%; in test [2] (30 mg/kg oral once a day, 17 days after MIA inducement, vehicle 32.2), 43.9 ± 1.3%; in test [2] (30 mg/kg oral once a day, 21 days after MIA inducement, vehicle 31.6) it was 39.7 ± 3.7%; in test [2] (30 mg/kg oral once a day, 25 days after MIA inducement, vehicle 33.3) it was 41.7 ± 1.9%. In addition, the “weight bearing, weight ratio of right hind limb” value is reported as 49.3 ± 0.9% in test [2] (30 mg/kg oral once a day, Before MIA inducement (baseline), vehicle 50.6) and 34.7 ± 4.0% in test [2] (30 mg/kg oral, 3 days after MIA inducement (before first dose), vehicle 36.9). Besides, the “Bone surface (Micro-CT, femur area of knee joint)” value in test [3] is 57.5 ± 0.5%. Also, the OARSI score in test [4] (vehicle 4) turned out to be 2.4 ± 0.4. The “Total Mankin score” value in test [4] (vehicle 7.5) is listed as 4 ± 0.6.

For `C[C@@H]1C[C@H]2[C@@H]3CCC4=CC(=O)C=C[C@]4(C)[C@@]3(F)[C@@H](O)C[C@]2(C)[C@@]1(O)C(=O)CO` [Dex, Dexamethasone], in the test on TSLP, the “TSLP expression (RT-PCR, relative to untreated = 1)” value is 52.49. Also, the “IL-1β expression (RT-PCR, relative to untreated = 1)” value in the test with IL-1β is listed as 1.081.

The record behind these values is patent publication US20230107274A1, “AN ORAL PHARMACEUTICAL COMPOSITION COMPRISING AN EXTRACT OF COMBINED HERBS COMPRISING LONGANAE ARILLUS FOR THE TREATMENT OR ALLEVIATION OF INFLAMMATORY DISEASE AND THE USE THEREOF” (MEDIHELPLINE CO., LTD, priority 2020, published 2023).
